Here are results for 15 compounds from ChEMBL document CHEMBL1130761, “Synthesis of 2,3,4a,11b-tetrahydro-oxazino[2,3-c]benzopyran-9-carbonitriles as ATP-sensitive potassium channel openers” (Bioorg Med Chem Lett, 1998).

Holding throughout (format): functional
For test [1], the species on record is Rattus norvegicus. Kind of test: Mechanoinhibitory activity was evaluated in KCl stimulated rat detrusor strip.
The species entered for test [2] is Rattus norvegicus. Kind of test: Mechanoinhibitory activity in presence of Glibenclamide (1 uM) was evaluated in KCl stimulated rat detrusor strip.
For test [3], the species on record is Rattus norvegicus. Kind of test: Mechanoinhibitory activity in presence of Glibenclamide (1 uM) was evaluated by spontaneous contraction of rat portal vein.
A short description of test [4]: Mechanoinhibitory activity was evaluated by the ratio of IC50(portal vein)/IC50(bladder).
Test [5] is filed under the species Rattus norvegicus. Kind of test: Mechanoinhibitory activity was evaluated by spontaneous contraction of rat portal vein.
Test [6] is filed under the species Rattus norvegicus. Kind of test: Mechanoinhibitory activity (bladder-selective potassium channel opening activity) was evaluated in KCl stimulated rat detrusor strip.
For test [7], the species on record is Rattus norvegicus. The experiment in a line: Mechanoinhibitory activity was evaluated by spontaneous contraction of rat portal vein; + indicates enhancement in spontaneous contraction was observed.

One may read the IC50 as the concentration that inhibits the measured activity by half.

For the compound `CC(=O)N1CCO[C@@H]2[C@H]1c1cc(C#N)ccc1OC2(C)C`, the 50% inhibitory concentration (IC50) in the test filed under Rattus norvegicus [1] came to 8.8 µM; in the test filed under Rattus norvegicus [2], 53.2 µM; in the test listed under Rattus norvegicus [3] it was 60.9 µM; in the test filed under Rattus norvegicus [5], 2.7 µM. In test [4], the Ratio is on record as 0.31.
The like results for `CC1(C)Oc2ccc(C#N)cc2[C@@H]2[C@H]1OCCN2C=O` were, in that order, 51.8 µM, 279 µM, 117 µM, 62.8 µM and 1.21.
Consider `CC1(C)Oc2ccc(C#N)cc2[C@@H]2[C@H]1OCCN2C(=O)c1ccccc1`, for which the half-inhibitory concentration (IC50) amounted to 32.8 µM in the test filed under Rattus norvegicus [2], 45.5 µM in the test filed under Rattus norvegicus [3], 34.5 µM in the test filed under Rattus norvegicus [5] and 8.15 µM in the test listed under Rattus norvegicus [6]. In addition, in test [4], the Ratio was 4.23.
Take `CC1(C)Oc2ccc(C#N)cc2[C@@H]2[C@@H]1OCCN2C(=O)c1ccccc1`: the IC50 in the test filed under Rattus norvegicus [1] was determined as 66 µM; in the test filed under Rattus norvegicus [2], 123 µM. The “Effect on spontaneous contraction” value in the test listed under Rattus norvegicus [7] is on record as “enhancement in spontaneous contraction”.
The like results for `CC1(C)Oc2ccc(C#N)cc2[C@@H]2[C@@H]1OCC(=O)N2Cc1ccccc1` were, in that order, 68.2 µM, 130 µM and “enhancement in spontaneous contraction”.
As to `CC1(C)Oc2ccc(C#N)cc2[C@@H](N2CCCC2=O)[C@@H]1O` [LEVCROMAKALIM], the IC50 in the test filed under Rattus norvegicus [1] turned out to be 0.82 µM; in the test filed under Rattus norvegicus [2], 8.7 µM; in the test listed under Rattus norvegicus [3], 4.9 µM; in the test filed under Rattus norvegicus [5] it was 0.13 µM. Further, the Ratio in test [4] was 0.16.
As for `CCC(=O)N1CCO[C@H]2[C@H]1c1cc(C#N)ccc1OC2(C)C`, the IC50 in the test listed under Rattus norvegicus [1] turned out to be 47.2 µM; in the test listed under Rattus norvegicus [2], 318 µM; in the test filed under Rattus norvegicus [3], 92.6 µM; in the test filed under Rattus norvegicus [5], 64.9 µM. The Ratio in test [4] is 1.38.
Take `CC1(C)Oc2ccc(C#N)cc2[C@@H]2[C@@H]1OCCN2C=O`: the IC50 was found to be 152 µM in the test listed under Rattus norvegicus [1] and 158 µM in the test filed under Rattus norvegicus [2]. For the same compound, in the test filed under Rattus norvegicus [7], the “Effect on spontaneous contraction” value is given as “enhancement in spontaneous contraction”.
Turning to `CC(=O)N1CCO[C@H]2[C@H]1c1cc(C#N)ccc1OC2(C)C`, the IC50 came to 70.1 µM in the test filed under Rattus norvegicus [1], 153 µM in the test listed under Rattus norvegicus [2], 79.3 µM in the test listed under Rattus norvegicus [3] and 5.9 µM in the test filed under Rattus norvegicus [5]. Further, in test [4], the Ratio was 0.08.
Turning to `CC(C)C(=O)N1CCO[C@H]2[C@H]1c1cc(C#N)ccc1OC2(C)C`, the IC50 in the test listed under Rattus norvegicus [1] was 104 µM; in the test listed under Rattus norvegicus [2], 244 µM; in the test filed under Rattus norvegicus [5], 127 µM. Moreover, the Ratio in test [4] came to 1.22.
Turning to `CN1C(=O)CO[C@H]2[C@H]1c1cc(C#N)ccc1OC2(C)C`, the IC50 in the test listed under Rattus norvegicus [1] amounted to 43.8 µM; in the test filed under Rattus norvegicus [2], 79.5 µM; in the test listed under Rattus norvegicus [3], 72.8 µM; in the test filed under Rattus norvegicus [5] it was 50.2 µM. For the same compound, the Ratio in test [4] is 1.15.
Turning to `CC(C)C(=O)N1CCO[C@@H]2[C@H]1c1cc(C#N)ccc1OC2(C)C`, the IC50 in the test filed under Rattus norvegicus [1] is 56.4 µM; in the test listed under Rattus norvegicus [2], 268 µM; in the test filed under Rattus norvegicus [3], 58.9 µM; in the test filed under Rattus norvegicus [5] it was 18.4 µM. Further, in test [4], the Ratio came to 0.33.
Take `CC1(C)Oc2ccc(C#N)cc2[C@H]2NC(=O)CO[C@@H]21`: the IC50 turned out to be 53.1 µM in the test filed under Rattus norvegicus [1] and 56.3 µM in the test filed under Rattus norvegicus [2]. In addition, the “Effect on spontaneous contraction” value in the test filed under Rattus norvegicus [7] was “enhancement in spontaneous contraction”.
As to `CCC(=O)N1CCO[C@@H]2[C@H]1c1cc(C#N)ccc1OC2(C)C`, the IC50 in the test listed under Rattus norvegicus [1] stood at 51.8 µM; in the test listed under Rattus norvegicus [2], 141 µM; in the test filed under Rattus norvegicus [3], 52.6 µM; in the test listed under Rattus norvegicus [5] it was 20.1 µM. For the same compound, the Ratio in test [4] amounted to 0.39.
On the same counts, the results for `CN1C(=O)CO[C@H]2[C@@H]1c1cc(C#N)ccc1OC2(C)C` are 65.7 µM, 129 µM, 28.3 µM, 26.2 µM and 0.4.
